From PubChem BioAssay AID248 (DTP/NCI, 2004)
Where “and” joins values, the source holds several entries; their conditions need not be identical. Equal values may be shown once. Inconclusive results and toxic doses are left out.

Tested on: L1210 leukemia ip in BDF1 mice, survival T/C
Test: NCI In Vivo Anticancer Drug Screen. Data for tumor model L1210 Leukemia (intraperitoneal) in B6D2F1 (BDF1) mice
Details: higher = longer survival
Outline: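 Value reflects the ratio of survival in compound-treated mice to survival in vehicle-treated controls, with both groups carrying the same transplanted tumor.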

[1] = endpoint: mean survival time, dose: 100.0 mg/kg/injection, schedule: Q01DX001 (ip), vehicle: saline
[2] = endpoint: mean survival time, dose: 200.0 mg/kg/injection, schedule: Q01DX001 (ip), vehicle: saline
[3] = endpoint: mean survival time, dose: 400.0 mg/kg/injection, schedule: Q01DX001 (ip), vehicle: saline

SMILES: CO[C@@]12[C@H](COC(N)=O)C3=C(C(=O)C(C)=C(N)C3=O)N1C[C@@H]1N[C@@H]12
- T/C (endpoint: mean survival time, dose: 0.1 mg/kg/injection, schedule: Q01DX Z (ip), vehicle: carboxymethylcellulose (CMC)): 110 % of control
- T/C (endpoint: mean survival time, dose: 0.18 mg/kg/injection, schedule: Q04DX002 (ip), vehicle: saline): 106 % of control and 110 % of control
- T/C (endpoint: mean survival time, dose: 0.2 mg/kg/injection, schedule: Q01DX Z (ip), vehicle: carboxymethylcellulose (CMC)): 110 % of control
- T/C (endpoint: mean survival time, dose: 0.2 mg/kg/injection, schedule: Q02DX010 (ip), vehicle: carboxymethylcellulose (CMC)): 118 % of control
- T/C (endpoint: mean survival time, dose: 0.25 mg/kg/injection, schedule: Q01DX Z (ip), vehicle: carboxymethylcellulose (CMC)): 107 % of control
- T/C (endpoint: mean survival time, dose: 0.32 mg/kg/injection, schedule: Q01DX Z (ip), vehicle: carboxymethylcellulose (CMC)): 98 % of control
- T/C (endpoint: mean survival time, dose: 0.35 mg/kg/injection, schedule: Q01DX009 (ip), vehicle: saline): 120 % of control
- T/C (endpoint: mean survival time, dose: 0.35 mg/kg/injection, schedule: Q04DX002 (ip), vehicle: saline): 103 % of control
- T/C (endpoint: mean survival time, dose: 0.4 mg/kg/injection, schedule: Q01DX Z (ip), vehicle: carboxymethylcellulose (CMC)): 114 % of control and 116 % of control
- T/C (endpoint: mean survival time, dose: 0.4 mg/kg/injection, schedule: Q02DX010 (ip), vehicle: carboxymethylcellulose (CMC)): 111 % of control and 90 % of control
- T/C (endpoint: mean survival time, dose: 0.5 mg/kg/injection, schedule: Q01DX Z (ip), vehicle: carboxymethylcellulose (CMC)): 107 % of control and 122 % of control
- T/C (endpoint: mean survival time, dose: 0.53 mg/kg/injection, schedule: Q01DX Z (ip), vehicle: carboxymethylcellulose (CMC)): 114 % of control
- T/C (endpoint: mean survival time, dose: 0.7 mg/kg/injection, schedule: Q01DX001 (ip), vehicle: saline): 109 % of control
- T/C (endpoint: mean survival time, dose: 0.7 mg/kg/injection, schedule: Q04DX002 (ip), vehicle: saline): 103 % of control and 111 % of control
- T/C (endpoint: mean survival time, dose: 0.75 mg/kg/injection, schedule: Q01DX001 (ip), vehicle: water): 118 % of control
- T/C (endpoint: mean survival time, dose: 0.8 mg/kg/injection, schedule: Q02DX010 (ip), vehicle: carboxymethylcellulose (CMC)): 104 % of control and 121 % of control
- T/C (endpoint: mean survival time, dose: 0.86 mg/kg/injection, schedule: Q02DX010 (ip), vehicle: carboxymethylcellulose (CMC)): 117 % of control
- T/C (endpoint: mean survival time, dose: 0.9 mg/kg/injection, schedule: Q02DX010 (ip), vehicle: other): 157 % of control and 219 % of control
- T/C (endpoint: mean survival time, dose: 0.96 mg/kg/injection, schedule: Q01DX001 (ip), vehicle: acetone): 114 % of control
- T/C (endpoint: mean survival time, dose: 1.0 mg/kg/injection, schedule: Q01DX001 (ip), vehicle: saline): 111 % of control
- T/C (endpoint: mean survival time, dose: 1.0 mg/kg/injection, schedule: Q01DX Z (ip), vehicle: carboxymethylcellulose (CMC)): 161 % of control
- T/C (endpoint: mean survival time, dose: 1.1 mg/kg/injection, schedule: Q01DX009 (ip), vehicle: saline): 155 % of control
- T/C (endpoint: mean survival time, dose: 1.12 mg/kg/injection, schedule: Q01DX015 (ip), vehicle: carboxymethylcellulose (CMC)): 171 % of control
- T/C (endpoint: mean survival time, dose: 1.25 mg/kg/injection, schedule: Q01DX015 (ip), vehicle: saline): 162 % of control
- T/C (endpoint: mean survival time, dose: 1.3 mg/kg/injection, schedule: Q02DX010 (ip), vehicle: other): 167 % of control and 207 % of control
- T/C (endpoint: mean survival time, dose: 1.4 mg/kg/injection, schedule: Q01DX001 (ip), vehicle: acetone): 111 % of control
- T/C (endpoint: mean survival time, dose: 1.4 mg/kg/injection, schedule: Q01DX009 (ip), vehicle: saline): 154 % of control and 178 % of control
- T/C (endpoint: mean survival time, dose: 1.5 mg/kg/injection, schedule: Q01DX001 (ip), vehicle: saline): 115 % of control
- T/C (endpoint: mean survival time, dose: 1.5 mg/kg/injection, schedule: Q01DX001 (ip), vehicle: water): 117 % of control
- T/C (endpoint: mean survival time, dose: 1.5 mg/kg/injection, schedule: Q07DX003 (ip), vehicle: saline): 123 % of control
- T/C (endpoint: mean survival time, dose: 1.5 mg/kg/injection, schedule: Q## X003 (ip), vehicle: saline): 118 % of control
- T/C (endpoint: mean survival time, dose: 1.6 mg/kg/injection, schedule: Q01DX001 (ip), vehicle: saline): 117 % of control
- T/C (endpoint: mean survival time, dose: 1.9 mg/kg/injection, schedule: Q01DX009 (ip), vehicle: saline): 97 % of control
- T/C (endpoint: mean survival time, dose: 2.0 mg/kg/injection, schedule: Q01DX Z (ip), vehicle: carboxymethylcellulose (CMC)): 106 % of control
- T/C (endpoint: mean survival time, dose: 2.0 mg/kg/injection, schedule: Q02DX010 (ip), vehicle: other): 180 % of control and 184 % of control
- T/C (endpoint: mean survival time, dose: 2.12 mg/kg/injection, schedule: Q02DX010 (ip), vehicle: carboxymethylcellulose (CMC)): 158 % of control
- T/C (endpoint: mean survival time, dose: 2.2 mg/kg/injection, schedule: Q01DX001 (ip), vehicle: saline): 108 % of control
- T/C (endpoint: mean survival time, dose: 2.5 mg/kg/injection, schedule: Q01DX015 (ip), vehicle: saline): 154 % of control
- T/C (endpoint: mean survival time, dose: 2.8 mg/kg/injection, schedule: Q01DX009 (ip), vehicle: saline): 93 % of control
- T/C (endpoint: mean survival time, dose: 3.0 mg/kg/injection, schedule: Q01DX001 (ip), vehicle: saline): 123 % of control
- T/C (endpoint: mean survival time, dose: 3.0 mg/kg/injection, schedule: Q02DX010 (ip), vehicle: other): 115 % of control and 118 % of control
- T/C (endpoint: mean survival time, dose: 3.0 mg/kg/injection, schedule: Q## X003 (ip), vehicle: saline): 152 % of control
- T/C (endpoint: mean survival time, dose: 3.2 mg/kg/injection, schedule: Q02DX010 (ip), vehicle: carboxymethylcellulose (CMC)): 184 % of control
- T/C (endpoint: mean survival time, dose: 3.3 mg/kg/injection, schedule: Q01DX001 (ip), vehicle: saline): 116 % of control
- T/C (endpoint: mean survival time, dose: 4.5 mg/kg/injection, schedule: Q02DX010 (ip), vehicle: other): 86 % of control and 88 % of control
- T/C (endpoint: mean survival time, dose: 5.0 mg/kg/injection, schedule: Q01DX001 (ip), vehicle: saline): 118 % of control
- T/C (endpoint: mean survival time, dose: 5.0 mg/kg/injection, schedule: Q01DX015 (ip), vehicle: saline): 89 % of control
- T/C (endpoint: mean survival time, dose: 6.0 mg/kg/injection, schedule: Q01DX001 (ip), vehicle: saline): 196 % of control
- T/C (endpoint: mean survival time, dose: 6.0 mg/kg/injection, schedule: Q01DX001 (ip), vehicle: water): 174 % of control
- T/C (endpoint: mean survival time, dose: 6.7 mg/kg/injection, schedule: Q02DX010 (ip), vehicle: carboxymethylcellulose (CMC)): 84 % of control
- T/C (endpoint: mean survival time, dose: 7.5 mg/kg/injection, schedule: Q01DX001 (ip), vehicle: saline): 123 % of control
- T/C (endpoint: mean survival time, dose: 10.6 mg/kg/injection, schedule: Q04DX002 (ip), vehicle: saline): 171 % of control
- T/C (endpoint: mean survival time, dose: 11.0 mg/kg/injection, schedule: Q01DX001 (ip), vehicle: acetone): 193 % of control
- T/C (endpoint: mean survival time, dose: 12.0 mg/kg/injection, schedule: Q## X003 (ip), vehicle: saline): 100 % of control
- T/C (endpoint: mean survival time, dose: 45.0 micrograms/kg/injection, schedule: Q01DX009 (ip), vehicle: saline): 99 % of control and 117 % of control
- T/C (endpoint: mean survival time, dose: 90.0 micrograms/kg/injection, schedule: Q01DX009 (ip), vehicle: saline): 106 % of control and 120 % of control
- T/C (endpoint: mean survival time, dose: 180.0 micrograms/kg/injection, schedule: Q01DX009 (ip), vehicle: saline): 104 % of control and 120 % of control
- T/C (endpoint: mean survival time, dose: 350.0 micrograms/kg/injection, schedule: Q01DX009 (ip), vehicle: saline): 121 % of control
- T/C (endpoint: mean survival time, dose: 1400.0 micrograms/kg/injection, schedule: Q01DX009 (ip), vehicle: saline): 153 % of control
- T/C (endpoint: median survival time, dose: 1.5 mg/kg/injection, schedule: Q01DX001 (ip), vehicle: saline): 100 % of control
- T/C (endpoint: median survival time, dose: 3.0 mg/kg/injection, schedule: Q01DX001 (ip), vehicle: saline): 109 % of control
- T/C (endpoint: median survival time, dose: 6.0 mg/kg/injection, schedule: Q01DX001 (ip), vehicle: saline): 109 % of control
- T/C (endpoint: median survival time, dose: 12.0 mg/kg/injection, schedule: Q01DX001 (ip), vehicle: saline): 117 % of control

SMILES: Cc1ccc(Cl)cc1NC(=O)N1CCN(c2ccccc2)CC1
- T/C (endpoint: mean survival time, dose: 100.0 mg/kg/injection, schedule: Q01DX001 (ip), vehicle: saline with Tween-80): 95 % of control
- T/C (endpoint: mean survival time, dose: 100.0 mg/kg/injection, schedule: Q01DX009 (ip), vehicle: saline with Tween-80): 98 % of control and 103 % of control
- T/C (endpoint: mean survival time, dose: 100.0 mg/kg/injection, schedule: Q04DX002 (ip), vehicle: saline with Tween-80): 120 % of control
- T/C (endpoint: mean survival time, dose: 100.0 mg/kg/injection, schedule: Q04DX003 (ip), vehicle: saline): 101 % of control
- T/C (endpoint: mean survival time, dose: 200.0 mg/kg/injection, schedule: Q01DX001 (ip), vehicle: saline with Tween-80): 87 % of control
- T/C (endpoint: mean survival time, dose: 200.0 mg/kg/injection, schedule: Q01DX009 (ip), vehicle: saline with Tween-80): 100 % of control and 102 % of control
- T/C (endpoint: mean survival time, dose: 200.0 mg/kg/injection, schedule: Q04DX002 (ip), vehicle: saline with Tween-80): 98 % of control and 86 % of control
- T/C (endpoint: mean survival time, dose: 200.0 mg/kg/injection, schedule: Q04DX003 (ip), vehicle: saline): 90 % of control
- T/C (endpoint: mean survival time, dose: 400.0 mg/kg/injection, schedule: Q01DX001 (ip), vehicle: saline with Tween-80): 100 % of control
- T/C (endpoint: mean survival time, dose: 400.0 mg/kg/injection, schedule: Q01DX009 (ip), vehicle: saline with Tween-80): 92 % of control
- T/C (endpoint: mean survival time, dose: 400.0 mg/kg/injection, schedule: Q04DX002 (ip), vehicle: saline with Tween-80): 95 % of control and 89 % of control
- T/C (endpoint: mean survival time, dose: 400.0 mg/kg/injection, schedule: Q04DX003 (ip), vehicle: saline): 95 % of control

SMILES: COC(=O)CC(c1ccccc1)N1CCCC1 (centres undefined)
- T/C [1]: 98 % of control
- T/C [2]: 104 % of control
- T/C [3]: 108 % of control

SMILES: CC(=O)N1Cc2c(N)nc(N)nc2C1C (centres undefined)
- T/C (endpoint: mean survival time, dose: 100.0 mg/kg/injection, schedule: Q01DX001 (ip), vehicle: carboxymethylcellulose (CMC)): 101 % of control
- T/C (endpoint: mean survival time, dose: 200.0 mg/kg/injection, schedule: Q01DX001 (ip), vehicle: carboxymethylcellulose (CMC)): 95 % of control
- T/C (endpoint: mean survival time, dose: 400.0 mg/kg/injection, schedule: Q01DX001 (ip), vehicle: carboxymethylcellulose (CMC)): 104 % of control

SMILES: O=C(O)CS(=O)(=O)C(c1ccccc1)c1ccccc1
- T/C [1]: 94 % of control
- T/C [2]: 97 % of control
- T/C [3]: 96 % of control
